This note sets out measurements from ChEMBL document CHEMBL1201862, “PubChem BioAssay data set” (2004).

The structures appear in SMILES notation. Active and inactive are the calls of the source.

Experiment [1] concerns the target Dual specificity protein phosphatase 3 (Homo sapiens, UniProt P51452). In words: VHR1 phosphatase inhibitors, biochemical (AID 1878).
Experiment [2] concerns the target T1, Heat shock factor protein 1 (Mus musculus, UniProt P38532).
T1 sequence (P38532 whole entry): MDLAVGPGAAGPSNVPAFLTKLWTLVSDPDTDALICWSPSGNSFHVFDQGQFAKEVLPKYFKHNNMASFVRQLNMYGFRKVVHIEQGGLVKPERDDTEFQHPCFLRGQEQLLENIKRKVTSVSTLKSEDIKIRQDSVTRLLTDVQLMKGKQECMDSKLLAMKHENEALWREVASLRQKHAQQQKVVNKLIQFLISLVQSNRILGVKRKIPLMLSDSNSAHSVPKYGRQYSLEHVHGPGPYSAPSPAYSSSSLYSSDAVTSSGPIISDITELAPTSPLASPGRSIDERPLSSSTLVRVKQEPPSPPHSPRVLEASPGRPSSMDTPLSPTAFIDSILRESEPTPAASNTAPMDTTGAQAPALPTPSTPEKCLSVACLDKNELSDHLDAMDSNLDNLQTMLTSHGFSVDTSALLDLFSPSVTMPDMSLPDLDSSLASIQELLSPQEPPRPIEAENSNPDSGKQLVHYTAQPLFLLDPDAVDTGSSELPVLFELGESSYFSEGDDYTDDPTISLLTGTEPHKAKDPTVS
In words: enhancement of HSF1-driven luciferase signal – cell-based, NIH3T3, luminescence, dose retest, confirmation (AID 435004).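 Note: stress induced by proteasome inhibitor MG132 added 30 min after compound; luciferase reporter driven by HSF1 response element in NIH3T3 cells; actives raise luminescence as potentiators of the MG132 stress response.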 Format: functional.

For experiment [3], the target named is Glycogen synthase kinase-3 beta (Homo sapiens, UniProt P49841). Format: functional.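 Note: value comes from a broad kinome profiling panel, with GSK3B as the panel member.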
For experiment [4], the target named is Dual specificity tyrosine-phosphorylation-regulated kinase 1B (Homo sapiens, UniProt Q9Y463). In words: Navigating the Kinome. Panel member name: DYRK1B. The format is functional.
The target in experiment [5] is Inhibitor of nuclear factor kappa-B kinase subunit epsilon (Homo sapiens, UniProt Q14164). In words: Navigating the Kinome. Panel member name: IKBKE. Format: functional.
The target in experiment [6] is Mitogen-activated protein kinase 13 (Homo sapiens, UniProt O15264). Format: functional.
The target of experiment [7] is Mitogen-activated protein kinase kinase kinase kinase 2 (Homo sapiens, UniProt Q12851). The format is functional.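 Note: measured as one member of a kinome-wide kinase panel, with MAP4K2 as the panel entry.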
Experiment [8] concerns the target Calcium/calmodulin-dependent protein kinase type II subunit delta (Homo sapiens, UniProt Q13557). Format: functional.
Experiment [9] addresses Tyrosine-protein kinase Fer (Homo sapiens, UniProt P16591). Format: functional.
The target in experiment [10] is Serine/threonine-protein kinase PAK 4 (Homo sapiens, UniProt O96013). Format: functional.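 Note: value obtained within a kinome profiling panel in which PAK4 was one of the panel members.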
Sequence of Serine/threonine-protein kinase PAK 4 (O96013 whole entry): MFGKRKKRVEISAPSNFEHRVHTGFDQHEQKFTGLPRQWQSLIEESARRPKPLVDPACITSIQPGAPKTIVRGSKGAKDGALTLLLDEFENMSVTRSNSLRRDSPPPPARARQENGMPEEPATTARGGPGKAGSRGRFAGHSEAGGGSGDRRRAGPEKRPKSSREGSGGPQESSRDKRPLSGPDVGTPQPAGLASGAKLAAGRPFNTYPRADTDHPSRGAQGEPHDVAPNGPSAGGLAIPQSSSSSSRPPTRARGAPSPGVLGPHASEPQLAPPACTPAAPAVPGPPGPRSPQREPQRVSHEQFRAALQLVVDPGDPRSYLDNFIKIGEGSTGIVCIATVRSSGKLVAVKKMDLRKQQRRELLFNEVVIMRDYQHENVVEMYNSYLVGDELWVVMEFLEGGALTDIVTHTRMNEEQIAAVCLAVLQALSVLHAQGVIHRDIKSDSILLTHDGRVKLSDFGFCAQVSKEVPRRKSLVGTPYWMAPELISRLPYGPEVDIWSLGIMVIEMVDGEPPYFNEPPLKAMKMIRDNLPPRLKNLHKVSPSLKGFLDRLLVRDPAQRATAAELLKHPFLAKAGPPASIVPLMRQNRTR

Sequence of Dual specificity protein phosphatase 3 (P51452 whole entry): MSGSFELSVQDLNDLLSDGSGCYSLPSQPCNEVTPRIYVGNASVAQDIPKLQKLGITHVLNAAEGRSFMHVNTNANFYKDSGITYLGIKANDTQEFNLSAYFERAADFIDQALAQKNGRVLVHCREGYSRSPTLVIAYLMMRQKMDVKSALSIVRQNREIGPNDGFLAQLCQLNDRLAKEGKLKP
Sequence of Inhibitor of nuclear factor kappa-B kinase subunit epsilon (Q14164 whole entry): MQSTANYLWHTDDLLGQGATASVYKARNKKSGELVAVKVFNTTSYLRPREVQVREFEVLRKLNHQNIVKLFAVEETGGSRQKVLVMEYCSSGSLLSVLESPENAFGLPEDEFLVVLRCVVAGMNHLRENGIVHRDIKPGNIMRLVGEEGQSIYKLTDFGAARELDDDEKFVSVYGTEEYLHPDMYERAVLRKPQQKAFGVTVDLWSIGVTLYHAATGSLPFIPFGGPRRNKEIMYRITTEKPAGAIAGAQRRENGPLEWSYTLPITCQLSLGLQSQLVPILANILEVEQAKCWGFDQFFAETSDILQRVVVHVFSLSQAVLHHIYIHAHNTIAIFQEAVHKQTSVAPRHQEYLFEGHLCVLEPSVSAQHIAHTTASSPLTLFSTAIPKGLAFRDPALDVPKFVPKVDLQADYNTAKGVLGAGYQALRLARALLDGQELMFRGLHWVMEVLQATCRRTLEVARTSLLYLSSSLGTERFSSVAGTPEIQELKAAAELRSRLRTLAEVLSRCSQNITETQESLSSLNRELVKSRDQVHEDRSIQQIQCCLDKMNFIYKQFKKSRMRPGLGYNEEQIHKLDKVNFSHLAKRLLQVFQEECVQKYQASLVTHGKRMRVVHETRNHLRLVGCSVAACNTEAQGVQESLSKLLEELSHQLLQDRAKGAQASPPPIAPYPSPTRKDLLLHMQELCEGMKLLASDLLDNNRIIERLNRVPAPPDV
Sequence of Mitogen-activated protein kinase 13 (O15264 whole entry): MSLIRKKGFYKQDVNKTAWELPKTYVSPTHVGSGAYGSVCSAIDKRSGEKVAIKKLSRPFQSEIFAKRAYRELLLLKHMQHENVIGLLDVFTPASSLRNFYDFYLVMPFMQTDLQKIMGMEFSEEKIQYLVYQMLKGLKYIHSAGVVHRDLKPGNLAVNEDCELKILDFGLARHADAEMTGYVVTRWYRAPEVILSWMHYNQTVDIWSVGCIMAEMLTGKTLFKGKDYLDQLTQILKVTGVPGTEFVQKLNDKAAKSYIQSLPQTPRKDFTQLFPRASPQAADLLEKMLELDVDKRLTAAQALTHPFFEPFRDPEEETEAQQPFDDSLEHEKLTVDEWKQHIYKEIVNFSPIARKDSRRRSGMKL
Sequence of Mitogen-activated protein kinase kinase kinase kinase 2 (Q12851 whole entry): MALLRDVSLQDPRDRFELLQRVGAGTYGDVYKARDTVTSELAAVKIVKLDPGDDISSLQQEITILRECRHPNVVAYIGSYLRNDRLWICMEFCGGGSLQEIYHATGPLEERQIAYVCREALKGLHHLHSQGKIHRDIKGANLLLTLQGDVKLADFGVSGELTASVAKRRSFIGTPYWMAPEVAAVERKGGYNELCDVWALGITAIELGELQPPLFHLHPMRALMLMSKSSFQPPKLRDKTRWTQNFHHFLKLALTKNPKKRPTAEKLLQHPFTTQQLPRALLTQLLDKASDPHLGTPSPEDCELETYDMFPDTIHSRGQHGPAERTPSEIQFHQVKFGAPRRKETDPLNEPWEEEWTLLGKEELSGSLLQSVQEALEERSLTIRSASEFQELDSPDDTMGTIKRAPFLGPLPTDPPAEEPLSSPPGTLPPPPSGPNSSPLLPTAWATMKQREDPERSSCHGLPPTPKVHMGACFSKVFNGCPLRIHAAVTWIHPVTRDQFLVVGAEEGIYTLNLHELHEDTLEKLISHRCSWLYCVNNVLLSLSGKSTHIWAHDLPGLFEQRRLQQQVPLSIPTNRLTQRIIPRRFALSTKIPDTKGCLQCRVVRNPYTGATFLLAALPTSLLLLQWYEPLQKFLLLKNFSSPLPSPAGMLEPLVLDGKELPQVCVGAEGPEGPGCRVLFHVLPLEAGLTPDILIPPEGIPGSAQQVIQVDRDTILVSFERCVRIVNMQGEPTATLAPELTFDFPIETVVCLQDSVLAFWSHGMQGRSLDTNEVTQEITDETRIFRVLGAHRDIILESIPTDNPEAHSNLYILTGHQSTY
Sequence of Tyrosine-protein kinase Fer (P16591 whole entry): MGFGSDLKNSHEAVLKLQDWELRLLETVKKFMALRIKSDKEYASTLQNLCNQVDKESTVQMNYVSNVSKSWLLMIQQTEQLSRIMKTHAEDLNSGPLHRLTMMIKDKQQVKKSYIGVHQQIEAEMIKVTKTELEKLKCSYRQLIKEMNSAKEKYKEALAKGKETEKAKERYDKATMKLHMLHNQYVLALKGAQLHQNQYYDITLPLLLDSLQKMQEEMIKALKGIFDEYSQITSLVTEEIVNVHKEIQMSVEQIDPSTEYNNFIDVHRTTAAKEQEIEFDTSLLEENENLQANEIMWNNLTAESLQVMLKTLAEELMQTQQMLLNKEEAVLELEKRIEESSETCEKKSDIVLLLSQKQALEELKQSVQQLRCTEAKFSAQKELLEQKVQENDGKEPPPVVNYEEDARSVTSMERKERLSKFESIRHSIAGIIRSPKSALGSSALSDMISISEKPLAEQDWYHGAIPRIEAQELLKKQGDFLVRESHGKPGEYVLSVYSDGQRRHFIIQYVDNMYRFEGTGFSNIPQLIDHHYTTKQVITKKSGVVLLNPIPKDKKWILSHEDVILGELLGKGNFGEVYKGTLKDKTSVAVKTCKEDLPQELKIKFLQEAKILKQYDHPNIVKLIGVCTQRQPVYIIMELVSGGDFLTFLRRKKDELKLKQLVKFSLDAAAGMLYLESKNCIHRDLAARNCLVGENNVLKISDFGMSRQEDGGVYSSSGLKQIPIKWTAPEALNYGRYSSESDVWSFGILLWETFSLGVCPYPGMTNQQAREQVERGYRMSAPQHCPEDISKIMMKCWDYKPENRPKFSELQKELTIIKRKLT
Sequence of Glycogen synthase kinase-3 beta (P49841 whole entry): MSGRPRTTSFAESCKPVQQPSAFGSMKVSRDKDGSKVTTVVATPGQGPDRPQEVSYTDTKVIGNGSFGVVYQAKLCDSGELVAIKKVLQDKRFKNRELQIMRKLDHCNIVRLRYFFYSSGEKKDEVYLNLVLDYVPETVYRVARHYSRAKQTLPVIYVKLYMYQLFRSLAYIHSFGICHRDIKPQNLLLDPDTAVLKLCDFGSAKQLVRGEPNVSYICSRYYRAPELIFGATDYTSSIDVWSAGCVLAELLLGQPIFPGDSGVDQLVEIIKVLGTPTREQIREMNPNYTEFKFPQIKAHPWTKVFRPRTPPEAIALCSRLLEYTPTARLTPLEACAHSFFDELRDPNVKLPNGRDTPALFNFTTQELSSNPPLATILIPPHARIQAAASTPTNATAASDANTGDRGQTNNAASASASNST
Sequence of Dual specificity tyrosine-phosphorylation-regulated kinase 1B (Q9Y463 whole entry): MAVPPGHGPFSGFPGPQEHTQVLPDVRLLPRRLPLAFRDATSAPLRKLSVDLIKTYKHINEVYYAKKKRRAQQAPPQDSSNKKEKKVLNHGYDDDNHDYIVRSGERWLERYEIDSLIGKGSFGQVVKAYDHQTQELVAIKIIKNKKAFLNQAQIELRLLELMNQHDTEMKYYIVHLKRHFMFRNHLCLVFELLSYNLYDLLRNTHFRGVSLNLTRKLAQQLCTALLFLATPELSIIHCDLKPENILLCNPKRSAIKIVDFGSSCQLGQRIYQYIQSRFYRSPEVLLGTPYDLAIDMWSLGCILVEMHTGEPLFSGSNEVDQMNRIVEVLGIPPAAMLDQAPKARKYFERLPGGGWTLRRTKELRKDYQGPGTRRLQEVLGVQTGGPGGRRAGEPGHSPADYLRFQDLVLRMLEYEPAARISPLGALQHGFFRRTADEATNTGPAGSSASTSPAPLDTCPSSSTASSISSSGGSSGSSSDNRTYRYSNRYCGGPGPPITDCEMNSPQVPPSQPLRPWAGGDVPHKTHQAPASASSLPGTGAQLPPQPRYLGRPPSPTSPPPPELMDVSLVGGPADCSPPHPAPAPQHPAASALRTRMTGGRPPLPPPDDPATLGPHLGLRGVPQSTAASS

As usually defined, the IC50 is the concentration at which inhibition is half-maximal. With `CS(=O)(=O)c1ccc2c(c1)SC1=NC(=O)/C(=C/c3ccc(O)c(O)c3)C(=N)N12`, the 50% inhibitory concentration (IC50) in [1] was 4570 nM (active).

A word on the EC50: it is the concentration that produces a half-maximal response. In the case of `CCOC(=O)C(C(=O)OCC)c1cc(Br)c2noc3c2c1C(=O)c1ccccc1-3`, in experiment [2], the EC50 was > 260000 nM (inconclusive).

By Ki is commonly meant the equilibrium dissociation constant of an inhibitor or competing ligand from its target. Consider `COc1ccc(C(=O)Nc2n[nH]c3ccc(-c4cn(Cc5ccccc5)nn4)cc23)cc1OC`, for which the Ki in [3] was > 100 nM (inactive); in experiment [4], 15.8 nM (active); in experiment [5], 200 nM (active); in [6], 501 nM (active); in [7] it was 398 nM (active); in experiment [8], 794 nM (active). For the same compound, the Ki in [9] is 251 nM (active); in experiment [10], 501 nM (active).
